In patent publication US9376421B2, “Compounds and methods for myotonic dystrophy therapy” (The Board of Trustees of the University of Illinois, priority 2014, dated 2016):

How the values were obtained:
(CUG)16 = (CUG)16 cleavage screening gel assay; type: biochemical; conditions: ligand 100 μM, (CUG)16 100 nM, 12 h, pH 7.4, 37° C., EtBr stain
Procedure: FIG. 2. Cleavage screening gel. (CUG)16 (SEQ ID NO: 1) (100 nM) was incubated with ligands (100 μM) and (CUG)16 (SEQ ID NO: 1) (100 nM), 12 h, 37° C. The reaction mixture was loaded onto a 20% denaturing PAGE gel and RNA was detected by post-staining with EtBr.
The potential cleavage activity of 4-9 was screened using a simple gel shift assay with (CUG)16 (SEQ ID NO: 1). To screen the agents, each agent was incubated for 12 h with unlabeled (CUG)16 (SEQ ID NO: 1) at a final concentration of 100 μM at pH 7.4. The mixture was separated on an RNA denaturing gel and stained with EtBr (FIG. 2). No loss of (CUG)16 (SEQ ID NO: 1) intensity was observed upon treatment with 2, 7, or tris(2-aminoethyl)amine (10).
RNA was fast folded at 95° C. for 5 min, followed by placing in ice for 10 min. RNA with a final concentration of 100 nM was incubated with cleaving agents 100 μM (in screening assays) and with ligand 9 at different concentrations (5, 10, 50, 100 μM). The cleaving buffer was 50 mM Tris buffer (pH 7.4) containing 150 mM NaCl and 2 mM MgCl2. The final volume of the reaction mixture was 10 μL. The reaction was quenched by adding 8 μL of 8 M urea and 2 μL of RNA loading dye followed by heating at 95° C. for 5 min. The mixture was separated on a 20% RNA denaturing gel. For non-labeled RNA, the gel was stained with EtBr and observed under UV. […]

MBNL1-CUGexp complex = conditions: previously reported; cited from earlier work
[1] = test system: insulin receptor (IR) minigene splicing; conditions: DM1 model cell cultures; cited from earlier work
cTNT32 = experiment: Ligand-RNA binding affinity, cTNT32
(CCUG)6 / (CCUG)8 = experiment: Ligand-RNA binding affinity, CCUG repeats; conditions: (CCUG)8
Description: Off target activity is a concern for any therapeutic agent but especially one designed to cleave RNA. To test the selectivity of agents 6 and 9, the screening gel assay described above was applied to other RNA targets, specifically cTNT32, (CCUG)8 (SEQ ID NO: 11), and HIV-1 frameshift site RNA (HIV FS) (FIG. 5a). Both 6 and 9 were quite selective. […] Thus, both similarly adopt stem-loop structures with internal loops within the stem, although obviously of different sequences. Differences between 6 and 9 were observed (FIG. 5) with the former cleaving (CCUG)8 (SEQ ID NO: 11), the toxic RNA involved in myotonic dystrophy type 2 (DM2). […] The ability to process the RNA directly parallels the corresponding ligand-RNA binding affinities. Thus, 1, which contains the acridine-triazine core of agent 6, complexes the (CCUG)6 (SEQ ID NO: 12) and (CUG)n sequences.

N=C(NCCCCNc1nc(N)nc(N)n1)c1ccc(C(=N)NCCCCNc2nc(N)nc(N)n2)cc1 [Ligand 2]
loss of (CUG)16 intensity (RNA cleavage) ((CUG)16): No loss
KI, inhibition of MBNL binding (MBNL1-CUGexp complex): low micromolar
rescue of splicing defect of IR minigene (earlier work) [1]: partially rescued
affinity toward cTNT32 (cTNT32): no affinity
affinity toward (CCUG)8 ((CCUG)6 / (CCUG)8): no affinity
